Measured values from patent publication US10351546B2, “Pyridin-3-yl acetic acid derivatives as inhibitors of human immunodeficiency virus replication” (priority 2015, dated 2019).

What follows are molecules tested on NL-RLuc virus (assay: Inhibition of HIV replication (NL-RLuc luciferase reporter virus in MT-2 cells)). Conditions: Human immunodeficiency virus 1, MT2, 120 h, read-out: Activity.
Assay type: cell-based
Procedure, shortened: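 MT-2 cells were infected with NL4-3-derived virus carrying Renilla luciferase in place of part of nef, in RPMI/10% FBS, with serial compound dilutions. Luciferase read after 5 days of multicycle replication. EC50 from the median effect equation, at least 2 experiments.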
In the case of `Cc1cc(F)ccc1CN1CCc2cc(-c3c(CN4CC[C@@H](F)C4)nc(C)c([C@H](OC(C)(C)C)C(=O)O)c3N3CCC(C)(C)CC3)ccc2C1` [Example 133, (S)-2-(tert-Butoxy)-2-(4-(4,4-dimethylpiperidin-1-yl)-5-(2-(4-fluoro-2-methylbenzyl)-1,2,3,4-tetrahydroisoquinolin-6-yl)-6-(((R)-3-fluoropyrrolidin-1-yl)methyl)-2-methylpyridin-3-yl)acetic acid], the EC50 is reported as less than 0.1 µM.
Molecule `Cc1nc(Cn2ncnc2C)c(-c2ccc(OCCc3ccc(F)cc3)cc2)c(N2CCC(C)(C)CC2)c1[C@H](OC(C)(C)C)C(=O)O` [Example 32, (S)-2-(tert-butoxy)-2-(4-(4,4-dimethylpiperidin-1-yl)-5-(4-(4-fluorophenethoxy)phenyl)-2-methyl-6-((5-methyl-1H-1,2,4-triazol-1-yl)methyl)pyridin-3-yl)acetic acid] has an EC50 of less than 0.1 µM.
Molecule `CC1(C)CCN(c2c([C@H](OC(C)(C)C)C(=O)O)cnc(CO)c2-c2ccc(OCCc3ccc(F)cc3)cc2)CC1` [Example 181, (S)-2-(tert-butoxy)-2-(4-(4,4-dimethylpiperidin-1-yl)-5-(4-(4-fluorophenethoxy)phenyl)-6-(hydroxymethyl)pyridin-3-yl)acetic acid] has an EC50 of less than 0.1 µM.
Molecule `Cc1cc(F)ccc1CN1CCc2cc(-c3c(CN4CCC(O)CC4)nc(C)c([C@H](OC(C)(C)C)C(=O)O)c3N3CCC(C)(C)CC3)ccc2C1` [Example 135, (S)-2-(tert-Butoxy)-2-(4-(4,4-dimethylpiperidin-1-yl)-5-(2-(4-fluoro-2-methylbenzyl)-1,2,3,4-tetrahydroisoquinolin-6-yl)-6-((4-hydroxypiperidin-1-yl)methyl)-2-methylpyridin-3-yl)acetic acid] has an EC50 of less than 0.1 µM.
`COC1CCN(Cc2nc(C)c([C@H](OC(C)(C)C)C(=O)O)c(N3CCC(C)(C)CC3)c2-c2ccc(OCCc3ccc(F)cc3)cc2)CC1` [Example 85, (S)-2-(tert-Butoxy)-2-(4-(4,4-dimethylpiperidin-1-yl)-5-(4-(4-fluorophenethoxy)phenyl)-6-((4-methoxypiperidin-1-yl)methyl)-2-methylpyridin-3-yl)acetic acid] showed an EC50 of less than 0.1 µM.
Molecule `Cc1cccc(Cl)c1CN1CCc2cc(-c3c(C#N)nc(C)c([C@H](OC(C)(C)C)C(=O)O)c3N3CCC(C)(C)CC3)ccc2C1` [Example 166, (S)-2-(tert-butoxy)-2-(5-(2-(2-chloro-6-methylbenzyl)-1,2,3,4-tetrahydroisoquinolin-6-yl)-6-cyano-4-(4,4-dimethylpiperidin-1-yl)-2-methylpyridin-3-yl)acetic acid] has an EC50 of less than 0.1 µM.
`CSCc1nc(C)c([C@H](OC(C)(C)C)C(=O)O)c(N2CCC(C)(C)CC2)c1-c1ccc(OCCc2ccc(F)cc2)cc1` [Example 17, (S)-2-(tert-Butoxy)-2-(4-(4,4-dimethylpiperidin-1-yl)-5-(4-(4-fluorophenethoxy)phenyl)-2-methyl-6-((methylthio)methyl)pyridin-3-yl)acetic acid] was tested, and the EC50 was less than 0.1 µM.
For `Cc1nc(CN2CCC(F)CC2)c(-c2ccc(OCCc3ccc(F)cc3)cc2)c(N2CCC(C)(C)CC2)c1[C@H](OC(C)(C)C)C(=O)O` [Example 90, (S)-2-(tert-Butoxy)-2-(4-(4,4-dimethylpiperidin-1-yl)-5-(4-(4-fluorophenethoxy)phenyl)-6-((4-fluoropiperidin-1-yl)methyl)-2-methylpyridin-3-yl)acetic acid], the EC50 was less than 0.1 µM.
For `CCOCc1nc(C)c([C@H](OC(C)(C)C)C(=O)O)c(N2CCC(C)(C)CC2)c1-c1ccc2c(c1)CCN(Cc1ccc(F)cc1C)C2` [Example 156, (S)-2-(tert-Butoxy)-2-(4-(4,4-dimethylpiperidin-1-yl)-6-(ethoxymethyl)-5-(2-(4-fluoro-2-methylbenzyl)-1,2,3,4-tetrahydroisoquinolin-6-yl)-2-methylpyridin-3-yl)acetic acid], the EC50 was less than 0.1 µM.
With `Cc1ncc(Br)c(N2CCC(C)(C)CC2)c1[C@H](OC(C)(C)C)C(=O)O` [Example 62, (S)-2-(5-Bromo-4-(4,4-dimethylpiperidin-1-yl)-2-methylpyridin-3-yl)-2-(tert-butoxy)acetic acid] the EC50 was less than 0.1 µM.
`CCOCCOCc1nc(C)c(-c2ccc(OCCc3ccc(F)cc3)cc2)c(N2CCC(C)(C)CC2)c1[C@H](OC(C)(C)C)C(=O)O` [Example 108, (S)-2-(tert-Butoxy)-2-(4-(4,4-dimethylpiperidin-1-yl)-2-((2-ethoxyethoxy)methyl)-5-(4-(4-fluorophenethoxy)phenyl)-6-methylpyridin-3-yl)acetic acid] gave an EC50 of less than 0.1 µM.
With `Cc1nc(CNc2ccccc2)c(-c2ccc(OCCc3ccc(F)cc3)cc2)c(N2CCC(C)(C)CC2)c1[C@H](OC(C)(C)C)C(=O)O` [Example 73, (S)-2-(tert-Butoxy)-2-(4-(4,4-dimethylpiperidin-1-yl)-5-(4-(4-fluorophenethoxy)phenyl)-2-methyl-6-((phenylamino)methyl)pyridin-3-yl)acetic acid] the EC50 was less than 0.1 µM.
Work on `Cc1nc(CC2=CCCCC2)c(-c2ccc(OCCc3ccc(F)cc3)cc2)c(N2CCC(C)(C)CC2)c1[C@H](OC(C)(C)C)C(=O)O` [Example 171, (S)-2-(tert-Butoxy)-2-(6-(cyclohex-1-en-1-ylmethyl)-4-(4,4-dimethylpiperidin-1-yl)-5-(4-(4-fluorophenethoxy)phenyl)-2-methylpyridin-3-yl)acetic acid] yielded an EC50 of less than 0.1 µM.
For `Cc1nc(COc2ccc(Cl)cc2)c(-c2ccc(OCCc3ccc(F)cc3)cc2)c(N2CCC(C)(C)CC2)c1[C@H](OC(C)(C)C)C(=O)O` [Example 6, (S)-2-(tert-butoxy)-2-(6-((4-chlorophenoxy)methyl)-4-(4,4-dimethylpiperidin-1-yl)-5-(4-(4-fluorophenethoxy)phenyl)-2-methylpyridin-3-yl)acetic acid], the EC50 was less than 0.1 µM.
`Cc1nc(CNCC2COC2)c(-c2ccc(OCCc3ccc(F)cc3)cc2)c(N2CCC(C)(C)CC2)c1[C@H](OC(C)(C)C)C(=O)O` [Example 76, (S)-2-(tert-Butoxy)-2-(4-(4,4-dimethylpiperidin-1-yl)-5-(4-(4-fluorophenethoxy)phenyl)-2-methyl-6-(((oxetan-3-ylmethyl)amino)methyl)pyridin-3-yl)acetic acid] gave an EC50 of less than 0.1 µM.
Work on `Cc1nc(CS(C)(=O)=O)c(-c2ccc(OCCc3ccc(F)cc3)cc2)c(N2CCC(C)(C)CC2)c1[C@H](OC(C)(C)C)C(=O)O` [Example 18, (S)-2-(tert-Butoxy)-2-(4-(4,4-dimethylpiperidin-1-yl)-5-(4-(4-fluorophenethoxy)phenyl)-2-methyl-6-((methylsulfonyl)methyl)pyridin-3-yl)acetic acid] yielded an EC50 of less than 0.1 µM.
`Cc1nc(N)c(-c2ccc(OCCc3ccc(F)cc3)cc2)c(N2CCC(C)(C)CC2)c1[C@H](OC(C)(C)C)C(=O)O` [Example 46, (S)-2-(6-Amino-4-(4,4-dimethylpiperidin-1-yl)-5-(4-(4-fluorophenethoxy)phenyl)-2-methylpyridin-3-yl)-2-(tert-butoxy)acetic acid] gave an EC50 of less than 0.1 µM.
With `Cc1nc(CNC2COC2)c(-c2ccc(OCCc3ccc(F)cc3)cc2)c(N2CCC(C)(C)CC2)c1[C@H](OC(C)(C)C)C(=O)O` [Example 77, (S)-2-(tert-Butoxy)-2-(4-(4,4-dimethylpiperidin-1-yl)-5-(4-(4-fluorophenethoxy)phenyl)-2-methyl-6-((oxetan-3-ylamino)methyl)pyridin-3-yl)acetic acid] the EC50 was less than 0.1 µM.

Same assay, conditions: Human immunodeficiency virus 1, MT2, 120 h, read-out: EC50 μM
`COC1CCN(Cc2nc(C)c([C@H](OC(C)(C)C)C(=O)O)c(N3CCC(C)(C)CC3)c2-c2ccc(OCCc3ccc(F)cc3)cc2)CC1` [Example 85, (S)-2-(tert-Butoxy)-2-(4-(4,4-dimethylpiperidin-1-yl)-5-(4-(4-fluorophenethoxy)phenyl)-6-((4-methoxypiperidin-1-yl)methyl)-2-methylpyridin-3-yl)acetic acid] was tested, and the EC50 was 0.001 µM.
`Cc1nc(COc2ccc(Cl)cc2)c(-c2ccc(OCCc3ccc(F)cc3)cc2)c(N2CCC(C)(C)CC2)c1[C@H](OC(C)(C)C)C(=O)O` [Example 6, (S)-2-(tert-butoxy)-2-(6-((4-chlorophenoxy)methyl)-4-(4,4-dimethylpiperidin-1-yl)-5-(4-(4-fluorophenethoxy)phenyl)-2-methylpyridin-3-yl)acetic acid] was tested, and the EC50 was 0.02 µM.
`Cc1nc(CNC2COC2)c(-c2ccc(OCCc3ccc(F)cc3)cc2)c(N2CCC(C)(C)CC2)c1[C@H](OC(C)(C)C)C(=O)O` [Example 77, (S)-2-(tert-Butoxy)-2-(4-(4,4-dimethylpiperidin-1-yl)-5-(4-(4-fluorophenethoxy)phenyl)-2-methyl-6-((oxetan-3-ylamino)methyl)pyridin-3-yl)acetic acid] was tested, and the EC50 was 0.067 µM.
